# pIC50, pKi: −log10 of the molar value.
# Assays:
# [1] = molecular target: T1, Tyrosinase (Agaricus bisporus) (UniProt O42713); assay: Inhibition of mushroom tyrosinase assessed as inhibition of L-DOPA oxidase activity; settings: concentration not given here
# T1 sequence (whole entry): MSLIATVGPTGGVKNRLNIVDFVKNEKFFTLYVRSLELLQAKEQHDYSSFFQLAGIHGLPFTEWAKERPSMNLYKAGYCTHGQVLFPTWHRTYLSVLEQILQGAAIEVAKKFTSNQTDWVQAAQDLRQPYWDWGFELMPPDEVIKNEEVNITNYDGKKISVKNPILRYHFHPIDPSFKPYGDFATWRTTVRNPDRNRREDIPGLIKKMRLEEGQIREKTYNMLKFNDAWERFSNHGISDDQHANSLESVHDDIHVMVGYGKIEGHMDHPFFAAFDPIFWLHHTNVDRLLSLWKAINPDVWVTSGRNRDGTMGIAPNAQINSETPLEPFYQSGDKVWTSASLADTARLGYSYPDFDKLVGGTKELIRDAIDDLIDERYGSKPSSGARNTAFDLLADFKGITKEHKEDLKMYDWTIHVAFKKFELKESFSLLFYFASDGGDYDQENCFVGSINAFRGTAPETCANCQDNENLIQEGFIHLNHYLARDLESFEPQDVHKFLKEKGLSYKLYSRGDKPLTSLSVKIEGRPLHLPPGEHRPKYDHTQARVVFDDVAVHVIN
# Tyrosinase [2] = molecular target: T2, Tyrosinase (Agaricus bisporus, UniProt O42713)
# T2 sequence (O42713 whole entry): T1 sequence (whole entry)
# Tyrosinase [3] = molecular target: T2, Tyrosinase; assay: Competitive inhibition of mushroom tyrosinase assessed as inhibition of L-DOPA oxidase activity
Compound,inhibition [1],pKi (Tyrosinase [2]),pIC50 (Tyrosinase [3])
O=C(/C=C/c1ccncc1)c1ccccc1O,39.7%,,
O=C(/C=C/c1cnc2ccccc2c1)c1ccccc1O,12.3%,,
COc1ccc(/C=C/C(=O)c2ccccn2)c(OC)c1,42.7%,,
O=C(/C=C/c1cccc([N+](=O)[O-])c1)c1ccccc1,18%,,
CN(C)c1ccc(/C=C/C(=O)c2ccccc2O)cc1,27.2%,,
O=C(/C=C/c1ccc2ccccc2n1)c1ccccc1O,8.9%,,
CN(C)c1ccc(/C=C/C(=O)c2ccccn2)cc1,39.7%,,
O=C(/C=C/c1ccccn1)c1ccccc1,34%,,
Oc1ccccc1C(O)/C=C/c1ccccn1 (configuration not stated),80.2%,5.58,5.77
O=C(/C=C/c1cccnc1)c1ccccc1O,49.3%,,
O=C(/C=C/c1cccc([N+](=O)[O-])c1)c1ccccc1O,42.2%,,
Oc1ccccc1C(O)/C=C/c1ccncc1 (configuration not stated),57.2%,5.09,5.64
O=C(/C=C/c1ccccn1)c1ccccc1O,56.8%,,
